Results taken from ChEMBL document CHEMBL5055671, “Targeting a Novel KRAS Binding Site: Application of One-Component Stapling of Small (5-6-mer) Peptides” (J Med Chem, 2021).
Numbered stars: 1 amine (or outer) side, 2 acyl side, 3 side chain; on linkers, the order of the positions; unused ones are H or OH. Bridge positions count the residues as written; N and C are the ends. Square brackets hold non-standard residues; d marks the D form. Peptide text beside a SMILES is read from it. ξ: configuration not given here. Nle(4-yne,6-yl) = O=C([C@H](CC#CC[*:3])N[*:1])[*:2]; ξIle = CC[C@H](C)C(N)C(=O)O

Biological target: GTPase KRas (Homo sapiens, UniProt P01116, G12V)
Test: Inhibition of alexa fluor 647-labeled kinase tracer 314 binding to biotinylated-KRAS G12V mutant (unknown origin) measured after 60 mins by HTRF competition binding assay

| IC50 (read-out: pIC50 (converted)) [µM] | Structure (SMILES) | IC50 (read-out: IC50) [µM] | pIC50 |
| --- | --- | --- | --- |
|  | CC(C)C[C@H](NC(=O)[C@@H]1COCc2cnnn2CCCCC(=O)N[C@@H](CC(=O)O)C(=O)N2CCC[C@H]2C(=O)N[C@@H](Cc2cccc3ccccc23)C(=O)N1)C(N)=O | 66 |  |
|  | NC(=O)[C@H](CC1CCCCC1)NC(=O)[C@@H]1COCc2cnnn2CCCCC(=O)NCC(=O)N2CCC[C@H]2C(=O)N[C@@H](Cc2cccc3ccccc23)C(=O)N1 | 100 |  |
| > 79.4 | CC(=O)N[C@@H](CCC(=O)O)C(=O)N[C@H]1CCCn2nncc2COC[C@@H](C(=O)N[C@@H](CC(C)C)C(=O)N[C@@H](C)C(=O)N2CCC[C@H]2C(N)=O)NC(=O)[C@H](Cc2cccc3ccccc23)NC(=O)[C@@H]2CCCN2C(=O)CNC1=O | > 83 |  |
|  | CC(C)C[C@H](NC(=O)[C@@H]1COCc2cnnn2CCCCC(=O)NCC(=O)N2CC[C@H]2C(=O)N[C@@H](Cc2cccc3ccccc23)C(=O)N1)C(N)=O | 32 |  |
|  | CC(C)C[C@H](NC(=O)[C@@H]1COCc2cnnn2CCCCC(=O)NCC(=O)N2CC[C@@H](O)[C@H]2C(=O)N[C@@H](Cc2cccc3ccccc23)C(=O)N1)C(N)=O | 70 |  |
|  | NC(=O)CC[C@H](NC(=O)[C@@H]1COCc2cnnn2CCCCC(=O)NCC(=O)N2CCC[C@H]2C(=O)N[C@@H](Cc2cccc3ccccc23)C(=O)N1)C(N)=O | 50 |  |
|  | CC(C)C[C@H](NC(=O)[C@@H]1COCc2cnnn2CCCCC(=O)NCC(=O)N2CCC[C@H]2C(=O)N[C@@H](Cc2c[nH]c3ccccc23)C(=O)N1)C(N)=O | 18 |  |
|  | CC(C)C[C@H](NC(=O)[C@@H]1COCc2cnnn2CCCCC(=O)N[C@@H](C)C(=O)N2CCC[C@H]2C(=O)N[C@@H](Cc2cccc3ccccc23)C(=O)N1)C(N)=O | 9.7 |  |
|  | CC(=O)N[C@@H](CCC(=O)O)C(=O)N[C@H]1CCCn2nncc2COC[C@H](C(=O)N[C@@H](CC(C)C)C(N)=O)NC(=O)[C@H](Cc2cccc3ccccc23)NC(=O)[C@@H]2CCCN2C(=O)CNC1=O | 93 |  |
|  | CC(C)C[C@H](NC(=O)[C@H]1Cc2cnnn2CCCCC(=O)NCC(=O)N2CCC[C@H]2C(=O)N[C@@H](Cc2cccc3ccccc23)C(=O)N1)C(N)=O | 65 |  |
|  | CC(C)C[C@H](NC(=O)[C@@H]1COCc2cnnn2CCCCC(=O)N[C@@H](CCC(=O)O)C(=O)N2CCC[C@H]2C(=O)N[C@@H](Cc2cccc3ccccc23)C(=O)N1)C(N)=O | 49 |  |
|  | CC(C)C[C@H](NC(=O)[C@@H]1COCc2cnnn2CCCCC(=O)NCC(=O)N2CCC[C@H]2C(=O)N[C@H](Cc2ccccc2)C(=O)N1)C(N)=O | > 82 |  |
|  | CC(C)C[C@H](NC(=O)[C@@H]1COCc2cnnn2CCCCC(=O)NCC(=O)N2CCC[C@H]2C(=O)N[C@@H](Cc2ccccc2)C(=O)N1)C(N)=O | > 38 |  |
|  | CC(C)C[C@H](NC(=O)[C@H]1COCc2cn(nn2)CCCCC(=O)NCC(=O)N2CCC[C@H]2C(=O)N[C@@H](Cc2cccc3ccccc23)C(=O)N1)C(N)=O | > 100 | < 4 |
|  | CC(C)C[C@H](NC(=O)[C@@H]1COCc2cnnn2CCCCC(=O)NCC(=O)N2CCC[C@H]2C(=O)N[C@@H](CC2CCCCC2)C(=O)N1)C(N)=O | 100 |  |
|  | CC[C@H](C)C1NC(=O)[C@@H]2CCCN2C(=O)[C@H](Cc2ccc(O)cc2)NC(=O)[C@@H](NC(=O)[C@H](CC(=O)O)NC(=O)[C@H](Cc2ccc(O)cc2)NC(=O)[C@H](Cc2ccccc2)NC(=O)[C@H](Cc2c[nH]cn2)NC(=O)[C@@H](N)Cc2ccccc2)CC#CCSC[C@@H](C(=O)N[C@@H](CC(C)C)C(=O)N[C@H](C(=O)N2CCC[C@H]2C(=O)N2CCC[C@H]2C(N)=O)[C@@H](C)CC)NC1=O (some centres undefined) (H-FHFYD[Nle(4-yne,6-yl)]YP[ξIle]CLIPP-NH2; thioether 6-10) | 0.023 |  |
|  | CC(C)C[C@H](NC(=O)[C@H]1CCCc2cnnn2CCCCC(=O)NCC(=O)N2CCC[C@H]2C(=O)N[C@@H](Cc2cccc3ccccc23)C(=O)N1)C(N)=O | 19 |  |
|  | CC(=O)N[C@@H](CC(=O)O)C(=O)N[C@H]1CCCn2nncc2COC[C@H](C(=O)N[C@@H](CC(C)C)C(N)=O)NC(=O)[C@H](Cc2cccc3ccccc23)NC(=O)[C@@H]2CCCN2C(=O)CNC1=O | 38 |  |
|  | CC(=O)N[C@@H](CC(=O)O)C(=O)N[C@H]1CCCn2nncc2COC[C@@H](C(=O)N[C@@H](CC(C)C)C(=O)N[C@@H](C)C(=O)N2CCC[C@H]2C(N)=O)NC(=O)[C@H](Cc2cccc3ccccc23)NC(=O)[C@@H]2CCCN2C(=O)CNC1=O | 40 |  |
|  | NC(=O)C[C@H](NC(=O)[C@@H]1COCc2cnnn2CCCCC(=O)NCC(=O)N2CCC[C@H]2C(=O)N[C@@H](Cc2cccc3ccccc23)C(=O)N1)C(N)=O | 48 |  |
|  | CC(C)C[C@H](NC(=O)[C@@H]1COCc2cnnn2CCCCC(=O)NCC(=O)N2CCC[C@H]2C(=O)N[C@@H](CC2CC2)C(=O)N1)C(N)=O | 32 |  |
|  | CC(=O)N[C@@H](Cc1cccc2ccccc12)C(=O)N[C@@H](COCc1cnnn1CCCCC(=O)NCC(N)=O)C(=O)N[C@@H](CC(C)C)C(N)=O | 38 |  |
|  | CC(C)C[C@H](NC(=O)[C@@H]1COCc2cnnn2CCCCC(=O)NCC(=O)N2C[C@H](O)C[C@H]2C(=O)N[C@@H](Cc2cccc3ccccc23)C(=O)N1)C(N)=O | 95 |  |
| > 79.4 | CC[C@@H](C)[C@@H]1NC(=O)[C@@H]2CCCN2C(=O)[C@H](Cc2ccc(O)cc2)NC(=O)[C@@H](NC(=O)[C@H](CC(=O)O)NC(C)=O)CCCn2nncc2COC[C@@H](C(=O)N[C@@H](CC(C)C)C(=O)N[C@@H](CC(C)C)C(=O)N2CCC[C@H]2C(N)=O)NC1=O | > 89 |  |
|  | CC(C)C[C@H](NC(=O)[C@@H]1COCc2cnnn2CCCCC(=O)NCC(=O)N2CCC[C@H]2C(=O)N[C@@H](Cc2ccccc2Cl)C(=O)N1)C(N)=O | > 100 |  |
|  | CC(C)C[C@H](CC(=O)[C@@H]1COCc2cnnn2CCCCC(=O)NCC(=O)N2CCC[C@H]2C(=O)C[C@@H](C)C(=O)C1)C(N)=O | 91 |  |

| IC50 (read-out: pIC50 (converted)) [µM] | Structure (SMILES) | IC50 (read-out: IC50) [µM] | pIC50 |
| --- | --- | --- | --- |
|  | CC(C)C[C@H](NC(=O)[C@@H]1COCc2cnnn2CCCCC(=O)N2CCC[C@H]2C(=O)N[C@@H](Cc2cccc3ccccc23)C(=O)N1)C(N)=O | 48 |  |
|  | CC(C)C[C@H](NC(=O)[C@H]1COCc2cnnn2CCCCC(=O)NCC(=O)N2CCC[C@H]2C(=O)N[C@@H](Cc2cccc3ccccc23)C(=O)N1)C(=O)N[C@@H](C)C(=O)N1CCC[C@H]1C(N)=O | 46 |  |
|  | CC(C)C[C@H](NC(=O)[C@@H]1COCc2cnnn2CCCCC(=O)NCC(=O)N2CCCCC[C@H]2C(=O)N[C@@H](Cc2cccc3ccccc23)C(=O)N1)C(N)=O | 55 |  |
|  | CCCC[C@H](NC(=O)[C@@H]1COCc2cnnn2CCCCC(=O)NCC(=O)N2CCC[C@H]2C(=O)N[C@@H](Cc2cccc3ccccc23)C(=O)N1)C(N)=O | 100 |  |
|  | CCCC[C@@H]1NC(=O)[C@@H]2CCCN2C(=O)CNC(=O)CCCCn2nncc2COC[C@@H](C(=O)N[C@@H](CC(C)C)C(N)=O)NC1=O | 48 |  |
|  | CC(C)C[C@H](NC(=O)[C@@H]1COCc2cnnn2CCCCCCCC(=O)N2CCC[C@H]2C(=O)N[C@@H](Cc2cccc3ccccc23)C(=O)N1)C(N)=O | 81 |  |
|  | CC(C)C[C@H](NC(=O)[C@@H]1COCc2cnnn2CCCCC(=O)NCC(=O)N(C)[C@@H](C(C)C)C(=O)N[C@@H](Cc2cccc3ccccc23)C(=O)N1)C(N)=O | 100 |  |
|  | NC(=O)[C@H](CC1CC1)NC(=O)[C@@H]1COCc2cnnn2CCCCC(=O)NCC(=O)N2CCC[C@H]2C(=O)N[C@@H](Cc2cccc3ccccc23)C(=O)N1 | 29 |  |
|  | CC(C)C[C@H](NC(=O)[C@@H]1COCc2cnnn2CCCCC(=O)NCC(=O)NC(C)(C)C(=O)N[C@@H](Cc2cccc3ccccc23)C(=O)N1)C(N)=O | 20 |  |
|  | CC(C)C[C@H](NC(=O)[C@@H]1COCc2cnnn2CCCCC(=O)NCC(=O)N2CCC[C@H]2C(=O)N[C@@H](CC(C)C)C(=O)N1)C(N)=O | 60 |  |
|  | CC(C)C[C@H](NC(=O)[C@@H]1COCc2cnnn2CCCCCCCCCC(=O)N2CCC[C@H]2C(=O)N[C@@H](Cc2cccc3ccccc23)C(=O)N1)C(N)=O | 28 |  |
|  | CC(C)C[C@H](NC(=O)[C@@H]1COCc2cnnn2CCCCC(=O)N[C@H](C)C(=O)N2CCC[C@H]2C(=O)N[C@@H](Cc2cccc3ccccc23)C(=O)N1)C(N)=O | 25 |  |
|  | CC(C)C[C@H](NC(=O)[C@H]1Cn2nncc2CCCC(=O)NCC(=O)N2CCC[C@H]2C(=O)N[C@@H](Cc2cccc3ccccc23)C(=O)N1)C(N)=O | 31 |  |
|  | NC(=O)[C@@H](NC(=O)[C@@H]1COCc2cnnn2CCCCC(=O)NCC(=O)N2CCC[C@H]2C(=O)N[C@@H](Cc2cccc3ccccc23)C(=O)N1)C1CCCCC1 | 78 |  |
|  | CC(C)C[C@H](NC(=O)[C@@H]1COCc2cnnn2CCCCC(=O)NCC(=O)N2CCC[C@H]2C(=O)N[C@@H](Cc2cccs2)C(=O)N1)C(N)=O | 53 |  |
|  | CC(C)C[C@H](NC(=O)[C@@H]1COCc2cnnn2CCCCC(=O)N[C@H](CCC(=O)O)C(=O)N2CCC[C@H]2C(=O)N[C@@H](Cc2cccc3ccccc23)C(=O)N1)C(N)=O | 100 |  |
|  | CC(C)C[C@H](NC(=O)[C@@H]1COCc2cnnn2CCCCCC(=O)N2CCC[C@H]2C(=O)N[C@@H](Cc2cccc3ccccc23)C(=O)N1)C(N)=O | 12 |  |
|  | CC(C)C[C@H](NC(=O)[C@@H]1COCc2cnnn2CCCCC(=O)N[C@H](CC(=O)O)C(=O)N2CCC[C@H]2C(=O)N[C@@H](Cc2cccc3ccccc23)C(=O)N1)C(N)=O | 77 |  |
|  | CC(C)C[C@H](NC(=O)[C@@H]1COCc2cnnn2CCCCC(=O)NCC(=O)N2CCC[C@H]2C(=O)N[C@@H](Cc2cccnc2)C(=O)N1)C(N)=O | 41 |  |
|  | CC(C)C[C@@H](C(N)=O)N(C)C(=O)[C@@H]1COCc2cnnn2CCCCC(=O)NCC(=O)N2CCC[C@H]2C(=O)N[C@@H](Cc2cccc3ccccc23)C(=O)N1 | 26 |  |
|  | CC(C)C[C@H](NC(=O)[C@@H]1COCc2cnnn2CCCCC(=O)NCC(=O)N2Cc3ccccc3C[C@H]2C(=O)N[C@@H](Cc2cccc3ccccc23)C(=O)N1)C(N)=O | 5.8 |  |
|  | CC(C)C[C@H](NC(=O)[C@@H]1COCc2cnnn2CCCCC(=O)NCC(=O)N2CCC[C@H]2C(=O)N[C@@H](c2ccccc2)C(=O)N1)C(N)=O | > 100 |  |
|  | CC(C)C[C@H](NC(=O)[C@@H]1COCc2cnnn2CCCCC(=O)NCC(=O)N2CCC[C@H]2C(=O)N[C@@H](Cc2ccc3ccccc3c2)C(=O)N1)C(N)=O | 9.5 |  |
|  | CC(C)C[C@H](NC(=O)[C@@H]1COCc2cnnn2CCCCC(=O)NCC(=O)N2CCC[C@H]2C(=O)N[C@@H](Cc2ccc(Cl)cc2)C(=O)N1)C(N)=O | > 74 |  |
|  | CC(C)C[C@H](NC(=O)[C@H]1CCn2nncc2CCCC(=O)NCC(=O)N2CCC[C@H]2C(=O)N[C@@H](Cc2cccc3ccccc23)C(=O)N1)C(N)=O | 13 |  |
